“Also recorded” adds a separate entry of the source. Where a SMILES comes first, the peptide text is derived from it. Where no end group is shown, it is not given here. Side-chain parts run from the residue outwards. The star is where a group is joined. Propyl(3-UDP) = O=c1ccn([C@@H]2O[C@H](COP(=O)(O)OP(=O)(O)OCCC*)[C@@H](O)[C@H]2O)c(=O)[nH]1; X1 = O=c1ccn([C@@H]2O[C@H](COP(=O)(O)OP(=O)(O)OCCCC*)[C@@H](O)[C@H]2O)c(=O)[nH]1; C3 linker = three-carbon linker from the acceptor serine to UDP; C4 linker = four-carbon linker from the acceptor serine to UDP

Assay [1] concerns the target T1, hOGT-(312–1031) (Homo sapiens, UniProt O15294).
T1 construct: Reactions contained 50 nM hOGT-(312–1031) in 50 mM Tris/HCl; made in house
T1 sequence (O15294 312-1031 isoform O15294-3): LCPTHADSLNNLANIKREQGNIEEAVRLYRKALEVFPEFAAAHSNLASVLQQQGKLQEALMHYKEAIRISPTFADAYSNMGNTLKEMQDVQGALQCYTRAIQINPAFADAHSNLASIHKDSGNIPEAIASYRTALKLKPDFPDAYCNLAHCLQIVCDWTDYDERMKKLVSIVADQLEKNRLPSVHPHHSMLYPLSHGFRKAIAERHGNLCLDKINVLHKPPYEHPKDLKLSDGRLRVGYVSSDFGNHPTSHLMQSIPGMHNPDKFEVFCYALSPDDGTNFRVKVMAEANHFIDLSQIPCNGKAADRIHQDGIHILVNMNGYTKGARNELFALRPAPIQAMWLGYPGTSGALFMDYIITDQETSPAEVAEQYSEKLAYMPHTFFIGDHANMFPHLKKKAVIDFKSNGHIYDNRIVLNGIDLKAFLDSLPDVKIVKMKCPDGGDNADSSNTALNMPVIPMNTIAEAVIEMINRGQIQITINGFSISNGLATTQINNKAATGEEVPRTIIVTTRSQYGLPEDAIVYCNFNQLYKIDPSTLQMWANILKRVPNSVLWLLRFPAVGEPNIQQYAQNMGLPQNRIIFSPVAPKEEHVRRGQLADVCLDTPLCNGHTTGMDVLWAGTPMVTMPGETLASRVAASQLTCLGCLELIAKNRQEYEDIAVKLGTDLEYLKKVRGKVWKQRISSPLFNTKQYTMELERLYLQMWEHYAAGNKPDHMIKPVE
The experiment in a line: In vitro glycosylation of hTAB1 by hOGT, Western blot with TAB1-gSer395 antibody and densitometry. Format: biochemical. To be noted: 1 μM TAB1-(7–402), 10 μM UDP-GlcNAc, Western blot densitometric quantification; read-out: IC50, O-GlcNAcylation of substrate protein TAB1. As to the method:
Reaction mixtures containing 1 μM TAB1-(7–402) protein [TAB1 is TGF (transforming growth factor)-β-activated kinase-binding protein 1] (purified as described previously), 0.125 μM hOGT-(312–1031) and 10 μM UDP-GlcNAc in a buffer of 50 mM Tris/HCl (pH 7.5) and 1 mM DTT were incubated at 37°C for 90 min, separated by SDS/PAGE (10% gels) and transferred on to nitrocellulose membranes. Membranes were probed with a TAB1-gSer^395 (O-GlcNAcylated Ser^395) O-GlcNAc site-specific antibody, followed by an IR800-labelled secondary antibody and analysed using a LI-COR Odyssey scanner and associated quantification software. Data were fitted to a four-parameter equation for dose-dependent inhibition using GraphPad Prism 5.0.

Assay [2] has as its target T2, SmNodC (Sinorhizobium meliloti NodC) (Rhizobium meliloti, UniProt P04341).
T2 sequence (P04341 1-426): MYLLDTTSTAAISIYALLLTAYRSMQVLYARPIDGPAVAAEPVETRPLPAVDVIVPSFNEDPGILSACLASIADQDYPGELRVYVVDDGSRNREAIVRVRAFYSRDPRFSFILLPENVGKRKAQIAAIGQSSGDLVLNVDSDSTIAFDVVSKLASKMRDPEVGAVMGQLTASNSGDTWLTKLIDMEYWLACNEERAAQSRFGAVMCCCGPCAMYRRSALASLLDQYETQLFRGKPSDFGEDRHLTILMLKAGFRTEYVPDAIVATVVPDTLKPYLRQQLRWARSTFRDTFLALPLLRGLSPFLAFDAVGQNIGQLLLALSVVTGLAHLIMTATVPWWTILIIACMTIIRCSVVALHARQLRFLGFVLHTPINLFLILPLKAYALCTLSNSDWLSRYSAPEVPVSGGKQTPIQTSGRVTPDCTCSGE
The experiment in a line: Coupled fluorigenic in vitro assay of GlcNAc transferase SmNodC. Format: biochemical. Particulars: 1 mM–0.46 μM compound. As to the method: Figure S4 The bacterial GlcNAc transferase NodC is not inhibited by goblin1 7.27–7.20 (m, 4H), 7.16 (t, J 8.2 Hz, 4H), 6.31 (d, J 8.2 Hz, 1H), Sm NodC, a GlcNAc transferase from Sinorhizobium meliloti that utilizes UDP-GlcNAc to 5.11–4.95 (m, 4H), 4.61 (dt, J 8.2, 3.0 Hz, 1H), 4.41 (dd, J 10.5, synthesize chito-oligosaccharides, was assayed to investigate the selectivity of goblin1. A 7.2 Hz, 1H), 4.31 (dd, J 10.5, 7.5 Hz, 1H), 4.24–4.14 (m, 2H), coupled ﬂuorigenic in vitro assay was performed in the presence of 1 mM–0.46 μM of goblin1, 4.10 (dq, J 11.2, 5.9 Hz, 1H), 3.92 (dd, J 9.5, 3.3 Hz, 1H), 3.79 12, 17 and UDP. The assay (details available from D. M. F. v. A. on request) relies on (dd, J 9.5, 2.9 Hz, 1H), 3.58 (dt, J 10.4, 5.4 Hz, 1H), 3.47 (dt, the elongation of 4-methylumbellifer yl-N -acetyl-β 1,4-glucosamine by the GlcNAc transferase J 9.8, 6.0 Hz, 1H), 2.37 (s, 3H), 2.35 (s, 3H), 1.8 (m, 1H), 1.7 Sm NodC, and subsequent hydrolysis of the reaction products by Aspergillus fumigatus chitinase (m, 1H), 1.60 (m, 2H); 13 C NMR (126 MHz, [2 H]chloroform) […]
4-parameter IC50 equation in the GraphPad Prism program (http://www.graphpad.com). […]
Beamline, wavelength (A˚) ID 23-1, 0.981ture was stirred for 16 h at room temperature. The reaction Space group P 321was quenched by the addition of methanol, stirred for 30 min Cell dimensions˚) 273.7, 142.6and concentrated. The residue was partitioned between ethyl […]
Resolution (A acetate and 10 % aqueous citric acid solution and the layers R merge 0.136 (0.505)were separated. The organic layer was washed successively with I /σ I 9.2 (3.1)water and a mixture of saturated NaHCO3 solution and brine.
Completeness (%) 99.2 (99.7)The aqueous layer was additionally extracted with the same Redundancy 4.3 (4.5)portion of ethyl acetate. The combined organic layer was dried and Reﬁnement ˚) 30–3.15concentrated. The residue was puriﬁed by ﬂash chromatography […]

The target in assay [3] is T1, hOGT-(312–1031). Nature of the assay: Biolayer interferometry binding to immobilized biotinylated hOGT-(312-1031). Particulars: 25°C. As to the method:
Measurements were made on a ForteBio Octet RED384 instrument at 25°C. Biotinylated hOGT-(312–1031) was prepared at 25 μg/ml in TBS (25 mM Tris/HCl, pH 7.5, and 150 mM NaCl) buffer containing 1 mM DTT and immobilized on superstreptavidin biosensors. Free streptavidin sites were blocked by incubation with biocytin. A parallel set of superstreptavidin biosensors were prepared with biotinylated streptavidin to act as a control. The assay was carried out in 384-well plates with a sample volume of 100 μl. Inhibitor solutions were prepared from solid stocks and dissolved in assay buffer and a concentration series of 3-fold dilutions from a top concentration of 100 μM was created. Cycles for analysis involved obtaining a 30 s baseline followed by a 60 s association step and a 120 s dissociation step. The assay was repeated with the reference biosensors to correct for non-specific interactions and the entire assay was repeated in triplicate for both compounds. Data were processed and kinetic parameters were calculated using ForteBio software.

Assay [4] addresses T1, hOGT-(312–1031). The experiment in a line: In vitro glycosylation of peptide substrate KKENSPAVTPVSTA by hOGT, fluorimetric UDP detection. Format: biochemical. To be noted: 10 μM peptide KKENSPAVTPVSTA, 3.2 μM UDP-GlcNAc, 50 nM hOGT. The protocol: Reactions contained 50 nM hOGT-(312–1031) in 50 mM Tris/HCl (pH 7.5), 0.1 mg/ml BSA, 10 μM sodium dithionate and 10 μM peptide (KKENSPAVTPVSTA) and various amounts of inhibitors in a total volume of 100 μl. Reaction mixtures were pre-incubated for 15 min and started by addition of UDP-GlcNAc to a final concentration of 3.2 μM. After 30 min of incubation at 22°C, assays were stopped by adding 200 μl of 25 mM Hepes (pH 7.4), 10 mM NaCl, 50% (v/v) methanol and 15 μM fluorophore, a UDP-sensitive xanthene-based Zn(II) complex prepared as described in [19, 20]. Product formation was detected fluorimetrically on a Gemini EM fluorescence microplate reader (Molecular Devices) at excitation and emission wavelengths of 485 nm and 530 nm respectively. A non-linear regression curve fit was performed with Prism.

The test system of assay [5] is hOGT. Also on record: method as in PMID 23103942. Particulars: cited from earlier work.
Assay [6] has as its target hOGT. Also on record: method as in PMID 21258330. To be noted: read-out: Ki for hOGT in vitro; cited from earlier work.
Assay [7] concerns the target T3, goblin2 (UDP-peptide conjugate 14b).
T3 chain: VTPVS([C4 linker-UDP])TA-NH2
The experiment in a line: biolayer interferometry.

Assay [8] addresses T4, goblin1 (UDP-peptide conjugate 14a).
T4 chain: VTPVS([C3 linker-UDP])TA-NH2
The experiment in a line: biolayer interferometry.

Consider `CC(=O)N[C@H](C(=O)N[C@H](C(=O)N1CCC[C@H]1C(=O)N[C@H](C(=O)N[C@@H](COCCCOP(=O)(O)OP(=O)(O)OC[C@H]1O[C@@H](n2ccc(=O)[nH]c2=O)[C@H](O)[C@@H]1O)C(=O)N[C@H](C(=O)N[C@@H](C)C(N)=O)[C@@H](C)O)C(C)C)[C@@H](C)O)C(C)C` [goblin1] (Ac-VTPVS(Propyl(3-UDP))TA-NH2), for which the IC50 worked out at 8 µM in assay [1] and 18 µM in assay [4]. Moreover, the “SmNodC inhibition” value in assay [2] is “not an inhibitor; also recorded: not inhibited”. This molecule gave a Kd in assay [3] of 7.9 µM.

In turn, `CC(=O)N[C@H](C(=O)N[C@H](C(=O)N1CCC[C@H]1C(=O)N[C@H](C(=O)N[C@@H](COCCCCOP(=O)(O)OP(=O)(O)OC[C@H]1O[C@@H](n2ccc(=O)[nH]c2=O)[C@H](O)[C@@H]1O)C(=O)N[C@H](C(=O)N[C@@H](C)C(N)=O)[C@@H](C)O)C(C)C)[C@@H](C)O)C(C)C` [goblin2] (Ac-VTPVS(X1)TA-NH2) gave a Kd in assay [3] of 4.9 µM. The same molecule yielded an IC50 in assay [4] of 40 µM.

`CC(=O)N[C@H]1[C@@H](OP(=O)(O)OP(=O)(O)OC[C@H]2O[C@@H](n3ccc(=O)[nH]c3=O)[C@H](O)[C@@H]2O)O[C@H](CO)[C@@H](O)[C@@H]1O` [UDP-GlcNAc]: the “fold higher Kd than for UDP” value in assay [5] (biophysical determination) is 30 fold.

As to `COCCCOP(=O)(O)OP(=O)(O)OC[C@H]1O[C@@H](n2ccc(=O)[nH]c2=O)[C@H](O)[C@@H]1O` [compound 17], in assay [2], the “SmNodC inhibition” value is recorded as “not inhibited”. The IC50 in assay [4] stood at 300 µM.

Regarding `O=c1ccn([C@@H]2O[C@H](COP(=O)(O)OP(=O)(O)O)[C@@H](O)[C@H]2O)c(=O)[nH]1` [UDP, reference compound], the Kd in assay [5] was 0.5 µM. This molecule also displayed an IC50 in assay [2] of 90 µM.

`CC(=O)N[C@@H]1[C@@H](O)[C@H](O)[C@@H](CO)S[C@@H]1OP(=O)(O)OP(=O)(O)OC[C@H]1O[C@@H](n2ccc(=O)[nH]c2=O)[C@H](O)[C@@H]1O` [UDP-5S-GlcNAc]: the Ki in assay [6] is 8 µM.

B1: O-GlcNAc transferase (hOGT) 312-1031 (protein)
chain: AEDCYNTALRLCPTHADSLNNLANIKREQGNIEEAVRLYRKALEVFPEFAAAHSNLASVLQQQGKLQEALMHYKEAIRISPTFADAYSNMGNTLKEMQDVQGALQCYTRAIQINPAFADAHSNLASIHKDSGNIPEAIASYRTALKLKPDFPDAYCNLAHCLQIVCDWTDYDERMKKLVSIVADQLEKNRLPSVHPHHSMLYPLSHGFRKAIAERHGNLCLDKINVLHKPPYEHPKDLKLSDGRLRVGYVSSDFGNHPTSHLMQSIPGMHNPDKFEVFCYALSPDDGTNFRVKVMAEANHFIDLSQIPCNGKAADRIHQDGIHILVNMNGYTKGARNELFALRPAPIQAMWLGYPGTSGALFMDYIITDQETSPAEVAEQYSEKLAYMPHTFFIGDHANMFPHLKKKAVIDFKSNGHIYDNRIVLNGIDLKAFLDSLPDVKIVKMKCPDGGDNADSSNTALNMPVIPMNTIAEAVIEMINRGQIQITINGFSISNGLATTQINNKAATGEEVPRTIIVTTRSQYGLPEDAIVYCNFNQLYKIDPSTLQMWANILKRVPNSVLWLLRFPAVGEPNIQQYAQNMGLPQNRIIFSPVAPKEEHVRRGQLADVCLDTPLCNGHTTGMDVLWAGTPMVTMPGETLASRVAASQLTCLGCLELIAKNRQEYEDIAVKLGTDLEYLKKVRGKVWKQRISSPLFNTKQYTMELERLYLQMWEHYAAGN
With B1, the figures for the Kd in assay [7] and in assay [8] were 4.9 µM and 7.9 µM, respectively.
